Biological target: T1, TlCel5A (Evansstolkia leycettana, UniProt A0A3G5ECP2)
T1 construct: mature protein, 18-residue signal peptide removed (precursor 409 residues); catalytic domain, linker, C-terminal CBM; pPIC9, secreted from Pichia pastoris GS115, purified
Assay: HPAEC analysis of hydrolysis products
Format: biochemical
Conditions: 60 °C; 200 μg substrate in 1 mL, 0.05 U enzyme

T1 sequence (A0A3G5ECP2 19-409): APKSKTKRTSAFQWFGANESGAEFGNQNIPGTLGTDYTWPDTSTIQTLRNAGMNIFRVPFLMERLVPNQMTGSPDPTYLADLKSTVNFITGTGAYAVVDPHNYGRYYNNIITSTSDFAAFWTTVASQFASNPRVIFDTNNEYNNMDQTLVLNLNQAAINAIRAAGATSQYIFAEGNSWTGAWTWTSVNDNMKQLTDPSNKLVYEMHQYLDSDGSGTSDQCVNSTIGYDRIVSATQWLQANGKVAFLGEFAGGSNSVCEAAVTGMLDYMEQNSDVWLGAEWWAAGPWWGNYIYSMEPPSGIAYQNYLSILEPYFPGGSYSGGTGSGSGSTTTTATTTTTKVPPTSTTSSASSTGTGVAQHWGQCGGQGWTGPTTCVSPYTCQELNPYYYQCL

Row | Structure (SMILES) | HPAEC analysis of hydrolysis products
1 | OC[C@H]1O[C@@H](O[C@H]2[C@H](O)[C@@H](O)[C@H](O[C@H]3[C@H](O)[C@@H](O)[C@H](O[C@H]4[C@H](O)[C@@H](O)[C@H](O[C@H]5[C@H](O)[C@@H](O)C(O)O[C@@H]5CO)O[C@@H]4CO)O[C@@H]3CO)O[C@@H]2CO)[C@H](O)[C@@H](O)[C@@H]1O (some centres unmarked) [cellopentaose] | cleaved cellopentaose into mainly cellobiose and cellotriose and low amounts of cellotetraose
2 | OC[C@H]1O[C@@H](O[C@H]2[C@H](O)[C@@H](O)[C@H](O[C@H]3[C@H](O)[C@@H](O)[C@H](O[C@H]4[C@H](O)[C@@H](O)[C@H](O[C@H]5[C@H](O)[C@@H](O)[C@H](O[C@H]6[C@H](O)[C@@H](O)C(O)O[C@@H]6CO)O[C@@H]5CO)O[C@@H]4CO)O[C@@H]3CO)O[C@@H]2CO)[C@H](O)[C@@H](O)[C@@H]1O (some centres unmarked) [cellohexaose] | cellohexaose into cellobiose, cellotriose, cellotetraose and cellopentaose

Reference: article PMC6857856, “Characterization of two thermophilic cellulases from Talaromyces leycettanus JCM12802 and their synergistic action on cellulose hydrolysis” (PLoS ONE, 2019)
